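Results reflect a 48-hour exposure of cells in 96-well plates to compound at five concentrations. GI50 is the concentration that inhibits growth by half.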 Activity calls are given as the source filed them. Cut-off read from the data, not from the text of the source: active = GI50 up to about 1.1 µM and inactive = higher.
Tests used:
Assay in all cases: NCI anticancer screen, dose series, 48 h
[1] = test system: IGROV-1
[2] = test system: OVCAR-4
[3] = test system: OVCAR-5
[4] = test system: SW-620
[5] = test system: Hs-578T
[6] = test system: KM12
[7] = test system: Malme-3M
[8] = test system: CCRF-CEM
[9] = test system: SF-539
[10] = test system: TK-10
[11] = test system: ACHN
[12] = test system: A498
[13] = test system: SNB-75
[14] = test system: SK-MEL-2
[15] = test system: A549
[16] = test system: MDA-MB-435
[17] = test system: SNB-19
[18] = test system: SF-295
[19] = test system: HT-29
[20] = test system: SN12C
[21] = test system: RXF 393
[22] = test system: HCC 2998
[23] = test system: T47D
[24] = test system: NCI-H522
[25] = test system: NCI/ADR-RES
[26] = test system: UO-31
[27] = test system: MOLT-4
[28] = test system: COLO 205
[29] = test system: MCF7
[30] = test system: HOP-92
[31] = test system: HOP-62
[32] = test system: MDA-MB-231
[33] = test system: OVCAR-3
[34] = test system: SF-268
[35] = test system: EKVX
[36] = test system: NCI-H23
[37] = test system: MDA-N
[38] = test system: U-251
[39] = test system: HCT-15
[40] = test system: DU-145
[41] = test system: NCI-H226
[42] = test system: SK-MEL-28
[43] = test system: CAKI-1
[44] = test system: RPMI-8226
[45] = test system: K562
[46] = test system: UACC-62
[47] = test system: BT-549
[48] = test system: PC-3
[49] = test system: SK-MEL-5
[50] = test system: HL-60
[51] = test system: SR
[52] = test system: 786-0
[53] = test system: OVCAR-8
[54] = test system: M14
[55] = test system: LOX IMVI
[56] = test system: SK-OV-3
[57] = test system: UACC-257
[58] = test system: HCT-116
[59] = test system: NCI-H460

## Cc1ccc(C(=O)Nc2ccc(CP(=O)(O)O)cc2)cc1NC(=O)c1cccc(N)c1
[1]
  GI50: > 100 µM (inactive)
[2]
  GI50: > 100 µM (inactive)
[3]
  GI50: > 100 µM (inactive)
[4]
  GI50: > 100 µM (inactive)
[5]
  GI50: > 100 µM (inactive)
[6]
  GI50: > 100 µM (inactive)
[7]
  GI50: > 100 µM (inactive)
[8]
  GI50: > 100 µM (inactive)
[9]
  GI50: > 100 µM (inactive)
[10]
  GI50: > 100 µM (inactive)
[11]
  GI50: > 100 µM (inactive)
[12]
  GI50: > 100 µM (inactive)
[13]
  GI50: > 100 µM (inactive)
[14]
  GI50: > 100 µM (inactive)
[15]
  GI50: > 100 µM (inactive)
[16]
  GI50: > 100 µM (inactive)
[17]
  GI50: > 100 µM (inactive)
[18]
  GI50: > 100 µM (inactive)
[19]
  GI50: > 100 µM (inactive)
[20]
  GI50: > 100 µM (inactive)
[21]
  GI50: > 100 µM (inactive)
[22]
  GI50: > 100 µM (inactive)
[23]
  GI50: > 100 µM (inactive)
[24]
  GI50: > 100 µM (inactive)
[25]
  GI50: > 100 µM (inactive)
[26]
  GI50: > 100 µM (inactive)
[27]
  GI50: > 100 µM (inactive)
[28]
  GI50: > 100 µM (inactive)
[29]
  GI50: > 100 µM (inactive)
[30]
  GI50: > 100 µM (inactive)
[31]
  GI50: > 100 µM (inactive)
[32]
  GI50: > 100 µM (inactive)
[33]
  GI50: > 100 µM (inactive)
[34]
  GI50: > 100 µM (inactive)
[35]
  GI50: > 100 µM (inactive)
[36]
  GI50: > 100 µM (inactive)
[37]
  GI50: > 100 µM (inactive)
[38]
  GI50: > 100 µM (inactive)
[39]
  GI50: > 100 µM
[40]
  GI50: > 100 µM (inactive)
[41]
  GI50: > 100 µM (inactive)
[42]
  GI50: > 100 µM (inactive)
[43]
  GI50: > 100 µM (inactive)
[44]
  GI50: > 100 µM (inactive)
[45]
  GI50: > 100 µM (inactive)
[46]
  GI50: > 100 µM (inactive)
[47]
  GI50: > 100 µM (inactive)
[48]
  GI50: > 100 µM (inactive)
[49]
  GI50: > 100 µM (inactive)
[50]
  GI50: > 100 µM (inactive)
[51]
  GI50: > 100 µM (inactive)
[52]
  GI50: > 100 µM (inactive)
[53]
  GI50: > 100 µM (inactive)
[54]
  GI50: > 100 µM (inactive)
[55]
  GI50: > 100 µM (inactive)
[56]
  GI50: > 100 µM (inactive)
[57]
  GI50: > 100 µM (inactive)
[58]
  GI50: > 100 µM (inactive)

## COc1ccc(C2=Nn3c(nc4sc(-c5ccccc5)cc4c3=O)SC2)cc1
[1]
  GI50: > 100 µM (inactive)
[3]
  GI50: > 100 µM (inactive)
[4]
  GI50: 37.3 µM (inactive)
[5]
  GI50: 34.4 µM (inactive)
[6]
  GI50: 81.1 µM (inactive)
[7]
  GI50: > 100 µM (inactive)
[8]
  GI50: > 100 µM (inactive)
[9]
  GI50: > 100 µM (inactive)
[10]
  GI50: > 100 µM (inactive)
[11]
  GI50: 7.35 µM (inactive)
[12]
  GI50: > 100 µM (inactive)
[15]
  GI50: > 100 µM (inactive)
[16]
  GI50: > 100 µM (inactive)
[18]
  GI50: > 100 µM (inactive)
[19]
  GI50: > 100 µM (inactive)
[20]
  GI50: > 100 µM (inactive)
[21]
  GI50: > 10 µM (inactive)
[22]
  GI50: > 100 µM (inactive)
[23]
  GI50: > 100 µM (inactive)
[24]
  GI50: > 100 µM (inactive)
[25]
  GI50: > 100 µM (inactive)
[26]
  GI50: > 100 µM (inactive)
[27]
  GI50: > 100 µM (inactive)
[28]
  GI50: > 100 µM (inactive)
[29]
  GI50: > 100 µM (inactive)
[30]
  GI50: > 100 µM (inactive)
[31]
  GI50: 54.8 µM (inactive)
[32]
  GI50: > 100 µM (inactive)
[33]
  GI50: > 100 µM (inactive)
[34]
  GI50: > 100 µM (inactive)
[35]
  GI50: > 100 µM (inactive)
[36]
  GI50: > 100 µM (inactive)
[37]
  GI50: 81.8 µM (inactive)
[38]
  GI50: > 100 µM (inactive)
[39]
  GI50: > 100 µM
[40]
  GI50: > 100 µM (inactive)
[41]
  GI50: > 100 µM (inactive)
[42]
  GI50: > 100 µM (inactive)
[43]
  GI50: > 100 µM (inactive)
[44]
  GI50: > 100 µM (inactive)
[45]
  GI50: > 10 µM (inactive)
[46]
  GI50: > 100 µM (inactive)
[47]
  GI50: > 100 µM (inactive)
[48]
  GI50: > 100 µM (inactive)
[49]
  GI50: > 100 µM (inactive)
[59]
  GI50: 48.4 µM (inactive)
[50]
  GI50: > 100 µM (inactive)
[51]
  GI50: > 100 µM (inactive)
[52]
  GI50: 36.9 µM (inactive)
[53]
  GI50: > 100 µM (inactive)
[55]
  GI50: > 100 µM (inactive)
[56]
  GI50: > 100 µM (inactive)
[57]
  GI50: > 100 µM (inactive)
[58]
  GI50: 92.3 µM (inactive)

## C[C@@]12C[C@@H](c3ccccc3O1)N1CCCCSC1=N2
[1]
  GI50: > 100 µM (inactive)
[2]
  GI50: > 100 µM (inactive)
[3]
  GI50: > 100 µM (inactive)
[4]
  GI50: > 100 µM (inactive)
[5]
  GI50: > 100 µM (inactive)
[6]
  GI50: > 100 µM (inactive)
[7]
  GI50: > 100 µM (inactive)
[8]
  GI50: > 100 µM (inactive)
[9]
  GI50: > 100 µM (inactive)
[10]
  GI50: > 100 µM (inactive)
[11]
  GI50: > 100 µM (inactive)
[12]
  GI50: > 100 µM (inactive)
[13]
  GI50: > 100 µM (inactive)
[14]
  GI50: > 100 µM (inactive)
[16]
  GI50: > 100 µM (inactive)
[17]
  GI50: > 100 µM (inactive)
[18]
  GI50: > 100 µM (inactive)
[19]
  GI50: > 100 µM (inactive)
[20]
  GI50: > 100 µM (inactive)
[21]
  GI50: > 100 µM (inactive)
[22]
  GI50: > 100 µM (inactive)
[23]
  GI50: > 100 µM (inactive)
[24]
  GI50: > 100 µM (inactive)
[25]
  GI50: > 100 µM (inactive)
[26]
  GI50: > 100 µM (inactive)
[27]
  GI50: > 100 µM (inactive)
[28]
  GI50: > 100 µM (inactive)
[29]
  GI50: > 100 µM (inactive)
[30]
  GI50: > 100 µM (inactive)
[31]
  GI50: > 100 µM (inactive)
[32]
  GI50: > 100 µM (inactive)
[33]
  GI50: > 100 µM (inactive)
[34]
  GI50: > 100 µM (inactive)
[35]
  GI50: > 100 µM (inactive)
[36]
  GI50: > 100 µM (inactive)
[37]
  GI50: > 100 µM (inactive)
[38]
  GI50: > 100 µM (inactive)
[39]
  GI50: > 100 µM
[40]
  GI50: > 100 µM (inactive)
[41]
  GI50: > 100 µM (inactive)
[42]
  GI50: > 100 µM (inactive)
[43]
  GI50: > 100 µM (inactive)
[44]
  GI50: > 100 µM (inactive)
[45]
  GI50: > 100 µM (inactive)
[46]
  GI50: > 100 µM (inactive)
[47]
  GI50: > 100 µM (inactive)
[48]
  GI50: > 100 µM (inactive)
[49]
  GI50: > 100 µM (inactive)
[59]
  GI50: > 100 µM (inactive)
[50]
  GI50: 3.46 µM (inactive)
[51]
  GI50: > 100 µM (inactive)
[52]
  GI50: > 100 µM (inactive)
[53]
  GI50: > 100 µM (inactive)
[54]
  GI50: > 100 µM (inactive)
[55]
  GI50: > 100 µM (inactive)
[56]
  GI50: > 100 µM (inactive)
[57]
  GI50: > 100 µM (inactive)
[58]
  GI50: > 100 µM (inactive)

Reference: ChEMBL document CHEMBL1201862, “PubChem BioAssay data set” (2004)
